Test: Water solubility as observed during handling, NMR and crystallization
Assay type: physicochemical

## Fmoc–Q^SO3H–OH [Compound 14]
  solubility in water (in words): surprisingly high
